Like-named read-outs stand apart in the source and are kept apart here.
Key:
[1] = biological target: α5-GABAA receptor (α5, β3, γ2 subunits) (Homo sapiens (Human), UniProt P18507+P31644); assay: Whole cell patch clamp, inverse agonist efficacy in HEK293 cells expressing α5-GABAA receptor; type: cell-based; settings: HEK293, drug 100 nM, GABA 0.05 μM, −60 mV; read-out: Compound inverse agonist efficacy %
Text: The inventors used electrophysiological methods to determine the inverse agonist efficacy of the drugs to be tested on the α5-GABAA receptor. The detailed methods are as follows:
Different subunits of the GABAA receptor were co-expressed in the HEK293 cell line to construct a fully functional GABAA receptor. The α, β, and γ subunits are essential to form a complete functional GABAA receptor. In this example, the present disclosure had established the following cell model: α5 subunit (see GenBank Accession No.: NM_000810.3 for protein sequences), β3 subunit (see GenBank Accession No.: NM_000814.5 for protein sequences), and γ2 subunit (see GenBank Accession No.: NM_000816.3 for protein sequences) were co-expressed in the HEK293 cell line, followed by screening the monoclonal stably transfected cell line. This cell line expressed a fully functional α5-GABAA receptor.
The monoclonal stably transfected HEK293 cell line expressing α5-GABAA receptor were cultured in 10 cm culture dishes and passaged when the cells grew to 80% to 90% confluent. During passaging, the culture medium was aspirated first, then 3 mL of DPBS phosphate buffer salt (Gibco™) was added to the culture dishes, and the culture dishes were shaken slightly, and DPBS was aspirated. 1 mL of trypsin (TrypLE Express, Gibco™) was added thereto, and the cells were digested at 37° C. for 1-2 minutes. Then 3 mL of complete medium (DMEM+10% FBS (Gibco™)) was added and the cells at the bottom of the culture dishes were dispersed. The cell suspension was transferred to a 15 mL centrifugal tube (Corning) and then centrifuged at 200 g for 3 minutes. The supernatant was discarded, 4 mL of complete medium was added, and the cells were gently blown and resuspended for use. If cell passaging was performed, the cell suspension was diluted at a ratio of 1:5 or 1:10. If cells for electrophysiological detection were prepared, the cell suspension was diluted in a ratio of 1:12, then added into a 24-well dish (Corning™) in which glass slides were placed and pretreated with Poly-D-Lysine, and the experiment was carried out after the cells adhered to the wall. The cells used for electrophysiology was cultured no more than 48 hours.
Drug concentration setting: The final drug concentration used in drug screening was 100 nM, and the GABA concentration was 0.05 μM. The whole cell patch clamp technique was used in electrophysiological assays, which could refer to the literature (I. Lecker, Y. Yin, D. S. Wang and B. A. Orser, British Journal of Anaesthesia, 2013, 110 (Si), i73-i81). The compositions of the extracellular solution for electrophysiology assay were as follows: 150 mM NaCl, 5 mM KCl, 2.5 mM CaCl2, 1 mM MgCl2, 10 mM HEPES, and 10 mM glucose (pH 7.4); the formulation of the electrode internal fluid for electrophysiology use was as follows: 140 mM CsCl, 11 mM EGTA, 10 mM HEPES, 2 mM CaCl2, 1 mM MgCl2, 4 mM MgATP, and 2 mM TEA (pH 7.3). The signal acquisition used an EPC-10 amplifier and the PatchMaster software (HEKA) or Axon700B amplifier and Clampex software (AXON). The recording electrode was pulled from borosilicate glass, and the electrode resistance was 4 to 6 MQ. The ALA-VC-8PG™ system was used for drug application. Single cell that grew independently was selected for recording. During recording, the cell membrane potential was clamped at −60 mV. During experiment, an extracellular solution was applied outside the cells for about 20 seconds. When the baseline reached to a stable state, the extracellular solution was switched to the GABA solution to induce an inward current. After about 20 to 40 seconds until the current was stable, the solution was switched to a corresponding drug solution to detect the effect of the drug. At last, the solution was switched to the extracellular solution, and the experiment was terminated when the baseline returned to the level before drug application. […]

[2] = biological target: human α5β3γ2 receptors (α5-GABAA receptor) (Homo sapiens (Human), UniProt P18507+P31644); assay: 3H-flunitrazepam competition binding, human α5β3γ2 GABAA receptor; settings: HEK293 cell membranes, 1 nM 3H-flunitrazepam
How it was run: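 HEK293 membranes stably expressing each human receptor subtype ([…]) competed against 1 nM 3H-flunitrazepam in Tris buffer, 1 h at room temperature; flumazenil defined the low-signal control. Eight-point 4-fold test-compound dilutions; GF/C filtration and scintillation counting gave IC50 by curve fitting, converted to Ki.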

Cc1nnn(-c2ccc(C(F)F)cc2)c1COc1ccc(N2CCN(CCO)C(=O)C2)nn1 [Example 59, 4-(6-((1-(4-(Difluoromethyl)phenyl)-4-methyl-1H-1,2,3-triazol-5-yl)methoxy)pyridazin-3-yl)-1-(2-hydroxyethyl)piperazin-2-one]
inhibition at 0.1 µM [1]: 44.9%
Ki ([2]; read-out: α5-GABAAR Ki): 3.97 nM

Cc1nnn(-c2ccc(C(F)F)cc2)c1COc1ccc(N2CCN(Cc3ccccn3)C(=O)C2)nn1 [Example 60, 4-(6-((1-(4-(Difluoromethyl)phenyl)-4-methyl-1H-1,2,3-triazol-5-yl)methoxy)pyridazin-3-yl)-1-(pyridin-2-ylmethyl)piperazin-2-one]
inhibition at 0.1 µM [1]: 47.2%
Ki ([2]; read-out: α5-GABAAR Ki): 1.33 nM

Cc1nnn(-c2ccc(C(F)F)cc2)c1COc1ccc(N2CCN(CC(F)(F)F)C(=O)C2)nn1 [Example 62, 4-(6-((1-(4-(Difluoromethyl)phenyl)-4-methyl-1H-1,2,3-triazol-5-yl)methoxy)pyridazin-3-yl)-1-(2,2,2-trifluoroethyl)piperazin-2-one]
inhibition at 0.1 µM [1]: 44.6%
Ki ([2]; read-out: α5-GABAAR Ki): 1.18 nM

CNS(=O)(=O)C1CCN(c2ccc(OCc3c(C)nnn3-c3ccc(C(F)F)cc3)nn2)C1 (centres unmarked) [Example 64, 1-(6-((1-(4-(Difluoromethyl)phenyl)-4-methyl-1H-1,2,3-triazol-5-yl)methoxy)pyridazin-3-yl)-N-methylpyrrolidine-3-sulfonamide]
inhibition at 0.1 µM [1]: 41.1%
Ki ([2]; read-out: α5-GABAAR Ki): 1.45 nM

Cc1nnn(-c2ccc(C(F)F)cc2)c1COc1ccc(N2CCN3C(=O)CNC(=O)[C@H]3C2)nn1 [Example 65, (R)-8-(6-((1-(4-(Difluoromethyl)phenyl)-4-methyl-1H-1,2,3-triazol-5-yl)methoxy)pyridazin-3-yl)hexahydro-1H-pyrazino[1,2-a]pyrazine-1,4(6H)-dione]
inhibition at 0.1 µM [1]: 56.1%
Ki ([2]; read-out: α5-GABAAR Ki): 2.37 nM

Cc1nnn(-c2ccc(C(F)F)cc2)c1COc1ccc(N2CC(CO)OC2=O)nn1 (centres unmarked) [Example 66, 3-(6-((1-(4-(Difluoromethyl)phenyl)-4-methyl-1H-1,2,3-triazol-5-yl)methoxy)pyridazin-3-yl)-5-(hydroxymethyl)oxazolidin-2-one]
inhibition at 0.1 µM [1]: 52.7%
Ki ([2]; read-out: α5-GABAAR Ki): 4.07 nM

Cc1nnn(-c2ccc(C(F)F)cc2)c1COc1ccc(N2CC(=O)N3CCN(C)CC3C2)nn1 (centres unmarked) [Example 69, 2-(6-((1-(4-(Difluoromethyl)phenyl)-4-methyl-1H-1,2,3-triazol-5-yl)methoxy)pyridazin-3-yl)-8-methylhexahydro-1H-pyrazino[1,2-a]pyrazin-4(6H)-one]
inhibition at 0.1 µM [1]: 55.1%
Ki ([2]; read-out: α5-GABAAR Ki): 0.9 nM

Cc1nnn(-c2ccc(F)cn2)c1COc1ccc(N2CCNC(=O)C2)nn1 [Example 73, 4-(6-((1-(5-Fluoropyridin-2-yl)-4-methyl-1H-1,2,3-triazol-5-yl)methoxy)pyridazin-3-yl)piperazin-2-one]
inhibition at 0.1 µM [1]: 41.3%
Ki ([2]; read-out: α5-GABAAR Ki): 4.93 nM

Cc1nnn(-c2ccc(C(F)F)cc2)c1COc1ccc(C2=CCCOC2)nn1 [Example 90, 3-((1-(4-(Difluoromethyl)phenyl)-4-methyl-1H-1,2,3-triazol-5-yl)methoxy)-6-(5,6-dihydro-2H-pyran-3-yl)pyridazine]
inhibition at 0.1 µM [1]: 49.2%
Ki ([2]; read-out: α5-GABAAR Ki): 0.75 nM

Cc1nnn(-c2ccc(C(F)F)cc2)c1COc1ccc(N2CC(=O)N3CCN(Cc4ncccn4)CC3C2)nn1 (centres unmarked) [Example 92, 2-(6-((1-(4-(Difluoromethyl)phenyl)-4-methyl-1H-1,2,3-triazol-5-yl)methoxy)pyridazin-3-yl)-8-(pyrimidin-2-ylmethyl)octahydro-4H-pyrazino[1,2-a]pyrazin-4-one]
inhibition at 0.1 µM [1]: 49.7%
Ki ([2]; read-out: α5-GABAAR Ki): 1.1 nM

Cc1nnn(-c2ccc(C(F)F)cc2)c1COc1ccc(N2CCN(CC3CCCO3)C(=O)C2)nn1 (centres unmarked) [Example 96, 4-(6-((1-(4-(Difluoromethyl)phenyl)-4-methyl-1H-1,2,3-triazol-5-yl)methoxy)pyridazin-3-yl)-1-((tetrahydrofuran-2-yl)methyl)piperazin-2-one]
inhibition at 0.1 µM [1]: 46.5%
Ki ([2]; read-out: α5-GABAAR Ki): 1.34 nM

Cc1nnn(-c2ccc(C(F)F)cc2)c1COc1ccc(N2CCN(CC3CC3)C(=O)C2)nn1 [Example 97, 1-(Cyclopropylmethyl)-4-(6-((1-(4-(difluoromethyl)phenyl)-4-methyl-1H-1,2,3-triazol-5-yl)methoxy)pyridazin-3-yl)piperazin-2-one]
inhibition at 0.1 µM [1]: 49.2%
Ki ([2]; α5-GABAAR Ki): 1.11 nM

Cc1nnn(-c2ccc(C(F)F)cc2)c1COc1ccc(N2CCN(CC3CCOC3)C(=O)C2)nn1 (centres unmarked) [Example 98, 4-(6-((1-(4-(Difluoromethyl)phenyl)-4-methyl-1H-1,2,3-triazol-5-yl)methoxy)pyridazin-3-yl)-1-((tetrahydrofuran-3-yl)methyl)piperazin-2-one]
inhibition at 0.1 µM [1]: 53.7%
Ki ([2]; read-out: α5-GABAAR Ki): 1.53 nM

Cc1nnn(-c2ccc(C(F)F)cc2)c1COc1ccc(N2CCN(CC#N)C(=O)C2)nn1 [Example 99, 2-(4-(6-((1-(4-(Difluoromethyl)phenyl)-4-methyl-1H-1,2,3-triazol-5-yl)methoxy)pyridazin-3-yl)-2-oxopiperazin-1-yl)acetonitrile]
inhibition at 0.1 µM [1]: 48%
Ki ([2]; read-out: α5-GABAAR Ki): 1.95 nM

Cc1nnn(-c2ccc(C(F)F)cc2)c1COc1ccc(N2CCN(CC3COC3)C(=O)C2)nn1 [Example 100, 4-(6-((1-(4-(Difluoromethyl)phenyl)-4-methyl-1H-1,2,3-triazol-5-yl)methoxy)pyridazin-3-yl)-1-(oxetan-3-ylmethyl)piperazin-2-one]
inhibition at 0.1 µM [1]: 54.6%
Ki ([2]; read-out: α5-GABAAR Ki): 1.54 nM

Cc1nnn(-c2ccc(C(F)F)cc2)c1COc1ccc(N2CC(C(=O)Nc3ccn(C)n3)C2)nn1 [Example 101, 1-(6-((1-(4-(Difluoromethyl)phenyl)-4-methyl-1H-1,2,3-triazol-5-yl)methoxy)pyridazin-3-yl)-N-(1-methyl-1H-pyrazol-3-yl)azetidine-3-carboxamide]
inhibition at 0.1 µM [1]: 43.9%
Ki ([2]; read-out: α5-GABAAR Ki): 1.15 nM

Cc1nnn(-c2ccc(C(F)F)cc2)c1COc1ccc(N2CCN3CCN(C)C(=O)[C@@H]3C2)nn1 [Example 107, (S)-8-(6-((1-(4-(Difluoromethyl)phenyl)-4-methyl-1H-1,2,3-triazol-5-yl)methoxy)pyridazin-3-yl)-2-methyloctahydro-1H-pyrazino[1,2-a]pyrazin-1-one]
inhibition at 0.1 µM [1]: 49.2%
Ki ([2]; read-out: α5-GABAAR Ki): 15.6 nM

Cc1nnn(-c2ccc(C(F)F)cc2)c1COc1ccc(N2CCN(CCN3CCC(F)(F)C3)C(=O)C2)nn1 [Example 110, 4-(6-((1-(4-(Difluoromethyl)phenyl)-4-methyl-1H-1,2,3-triazol-5-yl)methoxy)pyridazin-3-yl)-1-(2-(3,3-difluoropyrrolidin-1-yl)ethyl)piperazin-2-one]
inhibition at 0.1 µM [1]: 47.5%
Ki ([2]; read-out: α5-GABAAR Ki): 1.6 nM

Cc1nnn(-c2ccc(C(F)F)cc2)c1COc1ccc(N2CCN(c3ccncc3)C(=O)C2)nn1 [Example 114, 4-(6-((1-(4-(Difluoromethyl)phenyl)-4-methyl-1H-1,2,3-triazol-5-yl)methoxy)pyridazin-3-yl)-1-(pyridin-pyridin-4-yl)piperazin-2-one]
inhibition at 0.1 µM [1]: 51.3%
Ki ([2]; read-out: α5-GABAAR Ki): 2.82 nM
